The values that follow are results of earlier work, collected in paper PMC6650409, “Modeling the binding of diverse ligands within the Ah receptor ligand binding domain” (Scientific Reports, 2019).

Data set [1] has as its target T1, L302A mutant AhR (Mus musculus, UniProt P30561, L302A).
T1 construct: made in house; host or cells: in vitro transcription/translation (rabbit reticulocyte lysate)
T1 sequence (P30561 10-848 L302A): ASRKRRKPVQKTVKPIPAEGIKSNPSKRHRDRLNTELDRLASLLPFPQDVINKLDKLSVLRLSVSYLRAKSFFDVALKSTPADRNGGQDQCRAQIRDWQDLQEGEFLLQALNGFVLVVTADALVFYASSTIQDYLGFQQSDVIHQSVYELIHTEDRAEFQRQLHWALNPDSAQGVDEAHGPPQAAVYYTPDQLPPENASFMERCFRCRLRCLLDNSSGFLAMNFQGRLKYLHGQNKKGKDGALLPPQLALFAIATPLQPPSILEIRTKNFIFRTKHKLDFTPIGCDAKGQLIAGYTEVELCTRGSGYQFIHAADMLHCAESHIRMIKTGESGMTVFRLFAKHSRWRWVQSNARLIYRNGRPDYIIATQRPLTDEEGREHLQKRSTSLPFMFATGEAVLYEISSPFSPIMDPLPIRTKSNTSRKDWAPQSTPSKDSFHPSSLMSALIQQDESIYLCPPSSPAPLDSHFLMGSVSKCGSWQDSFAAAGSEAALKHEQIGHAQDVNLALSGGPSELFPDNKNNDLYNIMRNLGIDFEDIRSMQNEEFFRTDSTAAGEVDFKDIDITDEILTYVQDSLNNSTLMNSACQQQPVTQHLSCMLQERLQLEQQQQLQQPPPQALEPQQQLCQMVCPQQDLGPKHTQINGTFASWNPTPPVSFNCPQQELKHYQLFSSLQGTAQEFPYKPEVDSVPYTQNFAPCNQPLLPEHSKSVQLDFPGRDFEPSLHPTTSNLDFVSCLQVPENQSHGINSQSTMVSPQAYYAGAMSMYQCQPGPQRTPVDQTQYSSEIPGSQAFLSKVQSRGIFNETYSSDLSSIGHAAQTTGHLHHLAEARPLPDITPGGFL
On the set-up: method as in PMID 21981577. The following applies: L302A mutation; cited from earlier work.

For data set [2], the target named is T2, L309A mutant AhR (Mus musculus, UniProt P30561, L309A).
T2 construct: made in house; host or cells: in vitro transcription/translation (rabbit reticulocyte lysate)
T2 sequence (P30561 10-848 L309A): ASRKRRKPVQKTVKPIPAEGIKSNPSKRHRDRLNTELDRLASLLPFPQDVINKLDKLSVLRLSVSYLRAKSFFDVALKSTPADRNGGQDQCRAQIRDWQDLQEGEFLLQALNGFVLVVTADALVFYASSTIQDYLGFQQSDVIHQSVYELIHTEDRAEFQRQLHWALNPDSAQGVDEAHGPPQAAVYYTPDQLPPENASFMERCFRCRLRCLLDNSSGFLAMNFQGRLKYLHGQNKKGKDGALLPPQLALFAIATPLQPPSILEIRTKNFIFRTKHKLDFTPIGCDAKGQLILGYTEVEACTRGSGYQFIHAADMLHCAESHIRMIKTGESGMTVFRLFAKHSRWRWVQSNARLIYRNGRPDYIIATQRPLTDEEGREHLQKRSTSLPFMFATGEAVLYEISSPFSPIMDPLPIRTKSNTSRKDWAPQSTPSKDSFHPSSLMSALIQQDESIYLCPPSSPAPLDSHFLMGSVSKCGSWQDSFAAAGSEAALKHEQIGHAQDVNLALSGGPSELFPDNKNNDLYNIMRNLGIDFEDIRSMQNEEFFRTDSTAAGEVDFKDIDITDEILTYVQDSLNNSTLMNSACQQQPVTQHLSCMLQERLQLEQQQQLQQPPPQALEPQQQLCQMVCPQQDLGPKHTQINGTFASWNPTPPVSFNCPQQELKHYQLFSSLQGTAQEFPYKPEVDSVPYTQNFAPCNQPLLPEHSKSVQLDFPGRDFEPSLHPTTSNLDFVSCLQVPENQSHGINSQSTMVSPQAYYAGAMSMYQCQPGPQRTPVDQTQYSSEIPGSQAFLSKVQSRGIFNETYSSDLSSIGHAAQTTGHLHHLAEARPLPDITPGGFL
T2 sequence (P53762 whole entry partner): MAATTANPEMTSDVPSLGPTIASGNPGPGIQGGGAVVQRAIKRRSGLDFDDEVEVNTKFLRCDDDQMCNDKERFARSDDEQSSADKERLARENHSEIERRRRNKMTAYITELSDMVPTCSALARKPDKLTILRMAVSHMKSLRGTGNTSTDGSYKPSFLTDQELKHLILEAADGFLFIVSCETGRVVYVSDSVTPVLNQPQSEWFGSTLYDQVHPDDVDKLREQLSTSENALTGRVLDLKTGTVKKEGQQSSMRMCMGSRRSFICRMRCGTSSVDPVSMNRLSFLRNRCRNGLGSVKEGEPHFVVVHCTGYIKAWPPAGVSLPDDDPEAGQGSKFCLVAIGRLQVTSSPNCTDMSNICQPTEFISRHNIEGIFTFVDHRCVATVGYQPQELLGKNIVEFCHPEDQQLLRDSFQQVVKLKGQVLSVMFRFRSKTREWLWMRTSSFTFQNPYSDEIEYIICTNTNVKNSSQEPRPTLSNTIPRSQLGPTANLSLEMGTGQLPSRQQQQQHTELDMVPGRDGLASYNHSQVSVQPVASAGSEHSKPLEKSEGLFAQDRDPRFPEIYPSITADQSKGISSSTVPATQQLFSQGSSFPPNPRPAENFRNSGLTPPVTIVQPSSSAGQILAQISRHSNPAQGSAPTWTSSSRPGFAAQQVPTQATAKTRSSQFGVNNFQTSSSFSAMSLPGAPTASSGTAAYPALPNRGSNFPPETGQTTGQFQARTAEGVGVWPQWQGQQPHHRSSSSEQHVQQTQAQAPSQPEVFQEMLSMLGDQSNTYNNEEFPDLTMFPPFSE
On the set-up: method as in PMID 21981577. Conditions: L309A mutation; cited from earlier work.

Regarding `Clc1cc2c(cc1Cl)Oc1cc(Cl)c(Cl)cc1O2` [TCDD, 2,3,7,8-tetrachlorodibenzo-p-dioxin], the TCDD binding activity result in data set [1] and in data set [2] was “dramatically reduced” each time.
